Patent US7094909B2, “HIV protease inhibitors, compositions containing the same, their pharmaceutical uses and materials for their synthesis” (priority 2001, dated 2006)
Like-named read-outs stand apart in the source and are kept apart here.

What was measured:
[1] = test system: HIV-1 (HIV-1 RF, HIV-1 NL4-3) in CEM-SS / MT-2 cells; test: Cytopathic effect (CPE) inhibition assay (XTT/MTT dye reduction); type: cell-based
Method in brief: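 Readout is XTT reduction (A450, 4 h) after six days of culturing virus-infected (moi 0.025–0.819) or mock-infected CEM-SS/MT-2 cells, 2×10^4 per well, with half-log compound series. Antiviral EC50 and cytotoxic CC50 are relative to uninfected compound-free cells. Therapeutic index is CC50 divided by EC50.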

[2] = molecular target: T1, HIV-1 protease (Q7S mutant form) (Human immunodeficiency virus type 1 group M subtype B, UniProt P04585, Q495S); test: HIV-1 Protease RET assay; type: biochemical
T1 construct: made in house
Method in brief: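 Ki values fitted with the Morrison tight-binding equation from steady-state RET cleavage (ex 340, em 490 nm) of 5 μM RE(EDANS)SQNYPIVQK(DABCYL)R. Buffer pH 4.8 acetate, 1M NaCl, 5 mM DTT, 1 mg/ml BSA, 10% DMSO; 2 nM Q7S mutant dimer, 37 °C, 12 min.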

[3] = Human immunodeficiency virus 1, NL43, read-out: Ave CPE EC50
[4] = Ave. Ki (nM), RET assay, Q7S enzyme, Morrison tight binding fit
[5] = Human immunodeficiency virus 1, NL43, unit inferred, read-out: EC50

CC1(C)SCN(C(=O)[C@@H](O)[C@H](Cc2ccccc2)NC(=O)[C@@H]2CCCO2)[C@@H]1C(=O)NCc1ccco1 [Example B40, (R)-3-{(2S,3S)-2-Hydroxy-4-phenyl-3-[((S)-1-tetrahydro-furan-2-yl-methanoyl)-amino]-butanoyl}-5,5-dimethyl-thiazolidine-4-carboxylic acid (furan-2-ylmethyl)-amide]
EC50 [1, 3]: > 1 µM | Ki [2, 4]: 15.1 nM

C=CCNC(=O)[C@H]1N(C(=O)[C@@H](O)[C@H](Cc2ccccc2)NC(=O)O[C@H]2CCOC2)CSC1(C)C [Example B22, [(1S,2S)-3-((R)-4-Allylcarbamoyl-5,5-dimethyl-thiazolidin-3-yl)-1-benzyl-2-hydroxy-3-oxo-propyl]-carbamic acid (S)-(tetrahydro-furan-3-yl) ester]
EC50 [1, 3]: 0.246 µM | Ki [2, 4]: 12 nM

Cc1ccccc1CNC(=O)[C@H]1N(C(=O)[C@@H](O)[C@H](Cc2ccccc2)NC(=O)OC(C)C)CSC1(C)C [Example B16, {(S)-1-Benzyl-3-[5,5-dimethyl-4-(2-methyl-benzylcarbamoyl)-thiazolidin-3-yl]-2-hydroxy-3-oxo-propyl}-carbamic acid isopropyl ester]
EC50 [1, 3]: 1.57 µM | Ki [2, 4]: 2.6 nM

Cc1ccccc1CNC(=O)[C@H]1N(C(=O)[C@@H](O)[C@H](Cc2ccccc2)NC(=O)COc2c(C)cc(Cl)cc2C)CSC1(C)C
EC50 [1, 5]: 1.11 µM | Ki ([2]; Ki, unit inferred): 0.38 nM

Cc1c(O)cccc1C(=O)N[C@@H](Cc1ccccc1)[C@H](O)C(=O)N1CSC(C)(C)[C@H]1C(=O)N1CCc2ccccc2C1
EC50 [1, 5]: 1.18 µM | Ki ([2]; Ki, unit inferred): 9 nM

Cc1c(O)cccc1C(=O)N[C@@H](Cc1ccccc1)[C@H](O)C(=O)N1CC(F)(F)C[C@H]1C(=O)NCc1ccccc1Cl [Example C10, 4,4-Difluoro-1-[2-hydroxy-3-(3-hydroxy-2-methyl-benzoylamino)-4-phenyl-butyryl]-pyrrolidine-2-carboxylic acid 2-chloro-benzylamide]
EC50 [1, 3]: 1.29 µM | Ki [2, 4]: 1.5 nM

Cc1ccccc1CNC(=O)C1N(C(=O)[C@@H](O)[C@H](Cc2ccccc2)NC(=O)CSc2nc3ccccc3[nH]2)CSC1(C)C (some centres unmarked)
EC50 [1, 5]: ≥ 3.2 µM | Ki ([2]; Ki, unit inferred): 17.4 nM

CC1(C)SCN(C(=O)[C@@H](O)[C@H](Cc2ccccc2)NC(=O)c2cccc3[nH]ncc23)[C@@H]1C(=O)NCc1ccco1 [Example B37, 1-H-indazole-4-carboxylic acid (1-benzyl-3-{4[(furan-2-ylmethyl)-carbamoyl]-5,5-dimethyl-thiazolidin-3-yl}-2-hydroxy-3-oxo-propyl)-amide]
EC50 [1, 3]: 0.529 µM | Ki [2, 4]: 7.4 nM

Cc1ccccc1CNC(=O)[C@H]1N(C(=O)[C@@H](O)[C@H](Cc2ccccc2)NC(=O)[C@@H](NC(=O)c2ccccn2)C(C)C)CSC1(C)C
EC50 [1, 5]: 0.126 µM | Ki ([2]; Ki, unit inferred): ≤ 0.1 nM

Cc1ccccc1CNC(=O)[C@H]1N(C(=O)[C@@H](O)[C@H](Cc2ccccc2)NC(=O)O[C@@H]2CCS[C@@H]2C(C)C)CSC1(C)C [Example B5, {(1S,2S)-1-Benzyl-3-[(R)-5,5-dimethyl-4-(2-methyl-benzylcarbamoyl)-thiazolidin-3-yl]-2-hydroxy-3-oxo-propyl}-carbamic acid (R)-2-isopropyl-tetrahydro-thiophen-3-yl ester]
EC50 [1, 3]: 0.314 µM | Ki [2, 4]: 1.2 nM

C#CCNC(=O)[C@H]1N(C(=O)[C@@H](O)[C@H](Cc2ccccc2)NC(=O)COc2c(C)cccc2C)CSC1(C)C [Example B36, (R)-3-{(2S,3S)-3-[2-(2,6-Dimethyl-phenoxy)-ethanoylamino]-2-hydroxy-4-phenyl-butanoyl}-5,5-dimethyl-thiazolidine-4-carboxylic acid prop-2-ynylamide]
EC50 [1, 3]: 0.519 µM | Ki [2, 4]: < 0.1 nM

Cc1ccccc1CNC(=O)[C@H]1N(C(=O)[C@@H](O)[C@H](Cc2ccccc2)NC(=O)CSc2nc[nH]n2)CSC1(C)C [Example B4, 3-{2-Hydroxy-4-phenyl-3-[2-(2H-[1,2,4t]triazol-3-ylsufanyl)-ethanoylamino]-butanoyl}5,5-dimethyl-thiazolidine-4-carboxylic acid-2-methyl-benzylamide]
EC50 [1, 3]: 0.707 µM | Ki [2, 4]: 3 nM

C#CCOC(=O)N[C@@H](Cc1ccccc1)[C@H](O)C(=O)N1CSC(C)(C)[C@H]1C(=O)NCc1ccccc1Cl [Example B48, {1-Benzyl-3-[4(2-chloro-benzylcarbamoyl)-5,5-dimethyl-thiazolidin-3-yl]-2-hydroxy-3-oxo-propyl}-carbamic acid prop-2-ynyl ester]
EC50 [1, 3]: 1.48 µM | Ki [2, 4]: 0.83 nM

Cc1ccccc1CNC(=O)C1N(C(=O)[C@@H](O)[C@H](CSc2ccccc2)NC(=O)c2cccc(O)c2C)CSC1(C)C (some centres unmarked) [drawing 934]
EC50 ([1]; unit inferred, read-out: EC50): 0.027 µM | Ki ([2]; Ki, unit inferred): ≤ 0.1 nM

COc1cc2c(cc1OC)CN(C(=O)[C@H]1N(C(=O)[C@@H](O)[C@H](Cc3ccccc3)NC(=O)c3cccc(O)c3C)CSC1(C)C)CC2
EC50 [1, 5]: ≥ 10 µM | Ki ([2]; Ki, unit inferred): 46 nM

Cc1c(O)cccc1C(=O)N[C@@H](Cc1ccccc1)[C@H](O)C(=O)N1CSC(C)(C)[C@H]1C(=O)NCc1cccnc1 [Example A5, (R)-3-((2S,3S)-2-Hydroxy-3-{[1-(3-hydroxy-2-methyl-phenyl)-methanoyl]-amino}-4-phenyl-butanoyl)-5,5-dimethyl-thiazolidine-4-carboxylic acid (pyridin-3-ylmethyl)-amide]
EC50 [1, 3]: 0.148 µM | Ki [2, 4]: 0.2 nM

Cc1ccccc1CNC(=O)[C@H]1N(C(=O)[C@@H](O)C(Cc2ccccc2)NC(=O)CNc2c(C)cccc2C)CSC1(C)C (some centres unmarked)
EC50 [1, 5]: 1.22 µM | Ki ([2]; Ki, unit inferred): 2.3 nM

Cc1c(O)cccc1C(=O)N[C@@H](Cc1ccccc1)[C@H](O)C(=O)N1CSC(C)(C)[C@H]1C(=O)NCc1oc2ccccc2c1C [Example A54, (R)-3-[(2S,3S)-2-Hydroxy-3-(3-hydroxy-2-methyl-benzoylamino)-4-phenyl-butyryl]-5,5-dimethyl-thiazolidine-4-carboxylic acid (3-methyl-benzofuran-2-ylmethyl)-amide]
EC50 [1, 3]: 1.23 µM | Ki [2, 4]: 4.5 nM

Cc1c(O)cccc1C(=O)N[C@@H](Cc1ccccc1)[C@H](O)C(=O)N1CSC(C)(C)[C@H]1C(=O)N1CCOCC1 [Example A30]
EC50 [1, 3]: 0.586 µM | Ki [2, 4]: 10.9 nM

CC(=O)Oc1cccc(C(=O)N[C@@H](CSc2ccccc2)[C@H](O)CN2C[C@H]3CCCC[C@H]3C[C@H]2C(=O)NCc2ccccc2C)c1C
EC50 [1, 5]: 0.672 µM | Ki ([2]; Ki, unit inferred): 109 nM

Cc1ccccc1CNC(=O)[C@H]1N(C(=O)[C@@H](O)[C@H](Cc2ccccc2)NC(=O)O[C@H]2CCOC2)COC1(C)C [Example C47, {(1S,2S)-1-Benzyl-3-[(S)-5,5-dimethyl-4-(2-methyl-benzylcarbamoyl)-oxazolidin-3-yl]-2-hydroxy-3-oxo-propyl}-carbamic acid (S)-(tetrahydro-furan-3-yl)ester]
EC50 [1, 3]: 1.38 µM | Ki [2, 4]: 1.4 nM

Cc1c(O)cccc1C(=O)N[C@@H](Cc1ccccc1)[C@H](O)C(=O)N1CSC(C)(C)[C@H]1C(=O)NCC1CCOC1 (stereo partly drawn) [Example A46, (R)-3-((2S,3S)-2-Hydroxy-3-{[1-(3-hydroxy-2-methyl-phenyl)-methanoyl]-amino}-4-phenyl-butanoyl)-5,5-dimethyl-thiazolidine-4-carboxylic acid (tetrahydro-furan-3-ylmethyl)-amide]
EC50 [1, 3]: 0.469 µM | Ki [2, 4]: 1.1 nM

Cc1ccccc1CNC(=O)[C@@H]1CC(F)(F)CN1C(=O)[C@@H](O)[C@H](Cc1ccccc1)NC(=O)c1ccc(C)c(O)c1C [Example C42, (S)-4,4-Difluoro-1-((2S,3S)-2-hydroxy-3-{[1-(3-hydroxy-2,4-dimethyl-phenyl)-methanoyl]-amino}-4-phenyl-butanoyl)-pyrrolidine-2-carboxylic acid 2-methyl-benzylamide]
EC50 [1, 3]: 3.2 µM | Ki [2, 4]: 4 nM

Cc1ccccc1CNC(=O)[C@@H]1C2CCC(C2)N1C(=O)[C@@H](O)[C@H](Cc1ccccc1)NC(=O)c1cccc(O)c1C (some centres unmarked) [Example C50, 2-(2-Hydroxy-3-{[1-(-hydroxy-2-methyl-phenyl)-methanoyl]-amino}-4-phenyl-butanoyl)-2-aza-bicyclo[2.2.1]-heptane-3-carboxylic acid-2-methyl-benzylamide]
EC50 [1, 3]: 0.997 µM | Ki [2, 4]: 7.9 nM

Cc1c(O)cccc1C(=O)N[C@@H](Cc1ccccc1)[C@H](O)C(=O)N1CSC(C)(C)[C@H]1C(=O)NCc1n[nH]c2ccccc12 [Example A44, 3-(2-Hydroxy-3-{[1-(3-hydroxy-2-methyl-phenyl)-methanoyl]-amino}-4-phenyl-butanoyl)-5,5-dimethyl-thiazolidine-4-carboxylic acid (1H-indazol-3-ylmethyl)-amide]
EC50 [1, 3]: 0.478 µM | Ki [2, 4]: 1.4 nM

Cc1ccccc1CNC(=O)[C@H]1N(C(=O)[C@@H](O)[C@H](Cc2ccccc2)NC(=O)COc2c(C)cccc2C)CC(F)(F)C1(C)C [Example C46, (S)-1-{(2S,3S)-3-[2-(2,6-Dimethyl-phenoxy)-acetylamino]-2-hydroxy-4-phenyl-butyryl}-4,4-difluoro-3,3-dimethyl-pyrrolidine-2-carboxylic acid 2-methyl-benzylamide]
EC50 [1, 3]: 0.407 µM | Ki [2, 4]: < 0.1 nM

Cc1c(O)cccc1C(=O)N[C@@H](Cc1ccccc1)[C@H](O)C(=O)N1CSC(C)(C)[C@H]1C(=O)NC1CCC(C(C)(C)C)CC1 (some centres unmarked)
EC50 [1, 5]: 1.23 µM | Ki ([2]; Ki, unit inferred): 26 nM

C=CCNC(=O)[C@H]1N(C(=O)[C@@H](O)[C@H](Cc2ccccc2)NC(=O)c2cccc3[nH]ncc23)CSC1(C)C [Example B24, 1-H-indazole-4-carboxylic acid [3-(4-allylcarbamoyl-5,5-dimethyl-thiazolidin-3-yl)-1-benzyl-2-hydroxy-3-oxo-propyl]-amide]
EC50 [1, 3]: 0.512 µM | Ki [2, 4]: 8.3 nM
